Experimental data: US20060205697A1, “Novel betulin derivatives, preparation thereof and use thereof” (priority 2004, published 2006)
Like-named read-outs stand apart in the source and are kept apart here.

Tests used:
HIV-1 IIIIB isolate = experiment: HIV-1 inhibition: suppression of virus-induced cell killing in MT-2 cells, XTT method; format: cell-based; settings: Human immunodeficiency virus 1, IIIB, MT2, 120 h, read-out: anti-HIV activity (EC50)
Protocol: The biological evaluation of HIV-1 inhibition can be carried out as follows according to established protocols (Montefiori, D. C., et al., Clin. Microbiol. 26:231-235 (1988); Roehm, N., et al. J. Immunol. Methods 142:257-265 (1991)).
(§1) The human T-cell line, MT-2, was maintained in continuous culture with complete medium (RPMI 1640 with 10% fetal calf serum supplemented with L-glutamine at 5% CO2 and 37° C.). Test samples were first dissolved in dimethyl sulfoxide at a concentration of 10 mg/mL to generate master stocks with dilutions made into tissue culture media to generate working stocks. The final drug concentrations used for screening were 25. 2.5, 0.25, and 0.025 μg/mL. For agents found to be active, additional dilutions were prepared for subsequent testing so that an accurate EC50 value (defined below) could be determined. Test samples were prepared in duplicate (45 μL/well) and to each sample well was added […] of media containing MT-2 cells at 3×10^5 cells/mL and 45 μL of virus inoculum (HIV-1 IIIIB isolate) at a concentration necessary to result in 50% killing of the cell targets at 5 days post-infection (PI). Control wells containing virus and cells only (no drug) and cells only (no virus or drug) were also prepared. A second set of samples were prepared identical to the first and were added to cells under identical conditions without virus (mock infection) for toxicity determinations (IC50 defined below). In addition, AZT was also assayed during each experiment as a positive drug control. On day 5 PI, virus-induced cell killing was determined by measuring cell viability using the XTT method (Roehm, N., et al., supra). Compound toxicity was determined by XTT using the mock-infected samples. If a test sample had suppressive capability and was not toxic, its effects were reported in the following terms: IC50, the concentration of test sample which is toxic to 50% of the mock-infected MT-2 cells; EC50, the concentration of the test sample that is able to suppress HIV replication by 50%; and the Therapeutic index (TI) the ratio of the IC50 to EC50. The effective (EC50) and inhibitory (IC50) concentrations for anti-HIV activity and cytotoxicity, respectively, were determined (Roehm, N., et al., supra).

[1] = Compound toxicity in mock-infected MT-2 cells, XTT method; format: cell-based; settings: human
Protocol: as §1

[2] = system: HIV-1 replication in H9 lymphocyte cells; settings: cited from earlier work

Structure (SMILES) | EC50 (HIV-1 IIIIB isolate) [nM] | IC50 at 5 days [1] [nM] | T.I. ([2]; H9 lymphocyte cells) | EC50 ([2]; unit inferred, Fujioka et al. 1994, read-out: EC50, anti-HIV activity) [nM] | EC50 ([2]; H9 lymphocyte cells, read-out: EC50, inhibitory activity against HIV-1 replication) [nM]
C=C(C)[C@@H]1CC[C@]2(C(=O)OC3CCN(C(=O)OC(C)(C)C)C3)CC[C@]3(C)[C@H](CC[C@@H]4[C@@]5(C)CC[C@H](OC(=O)CC(C)(C)CC(=O)O)C(C)(C)[C@@H]5CC[C@]43C)[C@@H]12 (stereo partly drawn) [Compound 227, 3-O-(3′,3′-Dimethylglutaryl)betulinic acid (R)-3-[1-(tert-butoxycarbonyl)-pyrrolidinyl] ester] | 1 to 300 | 5000 to 100000 | – | – | –
C=C(C)[C@@H]1CC[C@]2(CNC(=O)OC(C)(C)C)CC[C@]3(C)[C@H](CC[C@@H]4[C@@]5(C)CC[C@H](OC(=O)CC(C)(C)CC(=O)O)C(C)(C)[C@@H]5CC[C@]43C)[C@@H]12 [Compound 1065, tert-Butoxycarboxamide N-[3-O-(3′,3′-dimethylglutaryl)lup-20(29)-en-28-yl]] | 1 to 300 | 5000 to 100000 | – | – | –
C=C(C)[C@@H]1CC[C@]2(C(=O)OCCOC)CC[C@]3(C)[C@H](CC[C@@H]4[C@@]5(C)CC[C@H](OC(=O)CC(C)(C)CC(=O)O)C(C)(C)[C@@H]5CC[C@]43C)[C@@H]12 [Compound 223, 3-O-(3′,3′-Dimethylglutaryl)betulinic acid 2-methoxyethyl ester] | 1 to 300 | 5000 to 100000 | – | – | –
CC(C)[C@@H]1CC[C@]2(C(=O)O)CC[C@]3(C)C(CCC4[C@@]5(C)CC[C@H](O)C(C)(C)C5CC[C@]43C)C12 (some centres unmarked) [dihydrobetulinic acid] | – | – | 14 | 900 | –
CC(=O)[C@@H]1CC[C@]2(C(=O)O)CC[C@]3(C)[C@H](CC[C@@H]4[C@@]5(C)CC[C@H](O)C(C)(C)[C@@H]5CC[C@]43C)[C@@H]12 [platanic acid] | – | – | 14 | – | 6500
C=C(C)[C@@H]1CC[C@]2(C(=O)OCC)CC[C@]3(C)[C@H](CC[C@@H]4[C@@]5(C)CC[C@H](OC(=O)CC(C)(C)CC(=O)O)C(C)(C)[C@@H]5CC[C@]43C)[C@@H]12 [Compound 235, 3-O-(3′,3′-Dimethylglutaryl)betulinic acid ethyl ester] | 1 to 300 | 5000 to 100000 | – | – | –
C=C(C)[C@@H]1CC[C@]2(C(=O)OC3CCOC3)CC[C@]3(C)[C@H](CC[C@@H]4[C@@]5(C)CC[C@H](OC(=O)CC(C)(C)CC(=O)O)C(C)(C)[C@@H]5CC[C@]43C)[C@@H]12 (mixture of isomers) [Compound 231, 3-O-(31,3′-Dimethylglutaryl)betulinic acid 3-(R/S)-3-(tetrahydrofuranyl) ester] | 1 to 300 | 5000 to 100000 | – | – | –
C=C(C)[C@@H]1CC[C@]2(CN)CC[C@]3(C)[C@H](CC[C@@H]4[C@@]5(C)CC[C@H](OC(=O)CC(C)(C)CC(=O)O)C(C)(C)[C@@H]5CC[C@]43C)[C@@H]12 [Compound 49, 3-O-(3′,3′-dimethylglutaryl)lup-20(29)-en-28-ylamine] | 1 to 300 | 5000 to 100000 | – | – | –
C=C(C)[C@@H]1CC[C@]2(C(=O)OCCC#N)CC[C@]3(C)[C@H](CCC4[C@@]5(C)CC[C@H](OC(=O)CC(C)(C)CC(=O)O)C(C)(C)C5CC[C@]43C)C12 (some centres unmarked) [Compound 206, 3-O-(3′,3′-Dimethylglutaryl)betulinic acid 2-cyanoethyl ester] | 1 to 300 | 5000 to 100000 | – | – | –
C=C(C)[C@@H]1CC[C@]2(C(=O)OCCN(C)C)CC[C@]3(C)[C@H](CCC4[C@@]5(C)CC[C@H](OC(=O)CC(C)(C)CC(=O)O)C(C)(C)C5CC[C@]43C)C12 (some centres unmarked) [Compound 218, 3-O-(3′,3′-Dimethylglutaryl)betulinic acid 2-N,N-dimethylaminoethyl ester] | 1 to 300 | 5000 to 100000 | – | – | –
